The assay has as its system P388 leukemia ip, CD2F1 mice, survival T/C. Briefly: NCI In Vivo Anticancer Drug Screen. Data for tumor model P388 Leukemia (intraperitoneal) in CD2F1 (CDF1) mice. Particulars: endpoint: median survival time, higher = longer survival. The method in brief: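 Mice carrying the transplanted tumor received test compound or vehicle. Survival was recorded in each group, and the value is the treated-group measurement divided by that of the vehicle-treated control group.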

Setting [1] is: dose: 100.0 mg/kg/injection, schedule: Q01DX005 (ip), vehicle: saline with Tween-80.
[2] abbreviates: dose: 200.0 mg/kg/injection, schedule: Q01DX005 (ip), vehicle: saline with Tween-80.
Where [3] appears, read: dose: 50.0 mg/kg/injection, schedule: Q01DX005 (ip), vehicle: saline with Tween-80.
[4] abbreviates: dose: 12.5 mg/kg/injection, schedule: Q01DX009 (ip), vehicle: saline with Tween-80.
[5] abbreviates: dose: 25.0 mg/kg/injection, schedule: Q01DX009 (ip), vehicle: saline with Tween-80.
The mark [6] stands for this setting: dose: 50.0 mg/kg/injection, schedule: Q01DX009 (ip), vehicle: saline with Tween-80.
[7] abbreviates: dose: 100.0 mg/kg/injection, schedule: Q01DX009 (ip), vehicle: saline with Tween-80.
[8] abbreviates: dose: 200.0 mg/kg/injection, schedule: Q01DX009 (ip), vehicle: saline with Tween-80.
Where [9] appears, read: dose: 50.0 mg/kg/injection, schedule: Q01DX005 (ip), vehicle: Klucel (hydroxypropylcellulose) (HPC).
Setting [10] is: dose: 100.0 mg/kg/injection, schedule: Q01DX005 (ip), vehicle: Klucel (hydroxypropylcellulose) (HPC).
The mark [11] stands for this setting: dose: 200.0 mg/kg/injection, schedule: Q01DX005 (ip), vehicle: Klucel (hydroxypropylcellulose) (HPC).

Consider 23 compounds from PubChem BioAssay AID330 (DTP/NCI, 2004).

Where “and” joins values, the source holds several entries; their conditions need not be identical. Equal values may be shown once. Toxic doses and inconclusive results are not listed. Square brackets hold non-standard residues; d marks the D form. Peptide text beside a SMILES is read from it. * marks the point of attachment. Cbz = O=C(OCc1ccccc1)*; Nva = CCC[CH](N)C(=O)O

On to `N=CC1=C(O)CCOC1=O`, for which the T/C (dose: 100.0 mg/kg/injection, schedule: Q01DX001 (ip), vehicle: saline) was 99 % of control; the T/C (dose: 200.0 mg/kg/injection, schedule: Q01DX001 (ip), vehicle: saline) was 99 % of control; the T/C (dose: 400.0 mg/kg/injection, schedule: Q01DX001 (ip), vehicle: saline) is 100 % of control.

On to `COc1cccnc1/C=N/NC(N)=S`, for which the T/C (dose: 3.13 mg/kg/injection, schedule: Q01DX009 (ip), vehicle: saline with Tween-80) was 124 % of control.

With `CCCC(=O)N(C)O`, the T/C was 108 % of control under setting [1] and 103 % of control under setting [2].

For `Cc1ccc(S(=O)(=O)SSN2CCOCC2)cc1`, the T/C by setting is: under setting [3], 103 % of control; under setting [1], 100 % of control; under setting [2], 100 % of control.

For the compound `CC(C)(N)C(=O)O`, the T/C under setting [4] is 101 % of control; the T/C under setting [5] was 94 % of control; the T/C under setting [6] was 100 % of control; the T/C under setting [7] was 94 % of control; the T/C under setting [8] was 100 % of control; the T/C (dose: 400.0 mg/kg/injection, schedule: Q01DX009 (ip), vehicle: saline with Tween-80) was 94 % of control. The T/C (dose: 800.0 mg/kg/injection, schedule: Q01DX009 (ip), vehicle: saline with Tween-80) was 94 % of control and the T/C (dose: 1600.0 mg/kg/injection, schedule: Q01DX009 (ip), vehicle: saline with Tween-80) is 94 % of control.

For the compound `C=CCCC(C)CC` (centres undefined), the T/C was 105 % of control under setting [6], 103 % of control under setting [7] and 100 % of control under setting [8].

With `CC(c1ccccc1)c1cc(C(C)(C)C)c(O)c(C(C)(C)C)c1` (centres undefined), the T/C (dose: 50.0 mg/kg/injection, schedule: Q01DX005 (ip), vehicle: distilled water + alcohol) was 100 % of control; the T/C (dose: 100.0 mg/kg/injection, schedule: Q01DX005 (ip), vehicle: distilled water + alcohol) was 99 % of control; the T/C (dose: 200.0 mg/kg/injection, schedule: Q01DX005 (ip), vehicle: distilled water + alcohol) is 93 % of control.

Regarding `CN(C)C(=Nc1ccc(NC(=O)c2ccc(C(=O)Nc3ccc(N=C(Nc4ccccc4)N(C)C)cc3)cc2)cc1)Nc1ccccc1`, the T/C is 101 % of control (dose: 6.25 mg/kg/injection, schedule: Q01DX005 (ip), vehicle: Klucel (hydroxypropylcellulose) (HPC)); 101 % of control (dose: 12.5 mg/kg/injection, schedule: Q01DX005 (ip), vehicle: Klucel (hydroxypropylcellulose) (HPC)); 100 % of control (dose: 25.0 mg/kg/injection, schedule: Q01DX005 (ip), vehicle: Klucel (hydroxypropylcellulose) (HPC)).

In the case of `CCOC(=O)C1CCCCC1NC1CCCCC1C(=O)OCC` (centres undefined), the T/C is, setting by setting: (dose: 34.5 mg/kg/injection, schedule: Q01DX009 (ip), vehicle: saline with Tween-80) 105 % of control; under setting [6], 120 % of control; (dose: 50.0 mg/kg/injection, schedule: Q01DX009 (ip), vehicle: saline) 103 % of control; under setting [7], 117 % of control; (dose: 100.0 mg/kg/injection, schedule: Q01DX009 (ip), vehicle: saline) 112 % of control; (dose: 138.0 mg/kg/injection, schedule: Q01DX009 (ip), vehicle: saline with Tween-80) 107 % of control. Also, the T/C under setting [8] is 120 % of control and the T/C (dose: 200.0 mg/kg/injection, schedule: Q01DX009 (ip), vehicle: saline) was 108 % of control.

As to `O=S(=O)(CBr)OCCCl`, the T/C was 120 % of control under setting [3]; 159 % of control (dose: 150.0 mg/kg/injection, schedule: Q01DX005 (ip), vehicle: saline with Tween-80); 200 % of control under setting [2].

`[O-][N+]1(CC[N+]2([O-])CCCCC2)CCCCC1`: the T/C was 97 % of control (dose: 60.0 mg/kg/injection, schedule: Q01DX005 (ip), vehicle: saline); 100 % of control (dose: 120.0 mg/kg/injection, schedule: Q01DX005 (ip), vehicle: saline); 97 % of control (dose: 240.0 mg/kg/injection, schedule: Q01DX005 (ip), vehicle: saline).

On to `CCCCc1ccc(-n2c(C)c(COC(=O)NC)c(COC(=O)NC)c2C)cc1`, for which the T/C by setting is: (dose: 12.5 mg/kg/injection, schedule: Q01DX009 (ip), vehicle: Klucel (hydroxypropylcellulose) (HPC)) 172 % of control and 190 % of control; (dose: 25.0 mg/kg/injection, schedule: Q01DX009 (ip), vehicle: Klucel (hydroxypropylcellulose) (HPC)) 152 % of control and 190 % of control.

Regarding `CCCC(NC(=O)OCc1ccccc1)C(=O)NC(C(=O)O)C(C)CC` (centres undefined) (Cbz-[Nva]-Ile-OH; configuration not given here), the T/C runs as follows: under setting [9], 100 % of control; under setting [10], 100 % of control; under setting [11], 101 % of control.

With `CCOC(=O)c1sc2nc(CN3CCOCC3)[nH]c(=O)c2c1C`, the T/C is, setting by setting: under setting [3], 94 % of control; under setting [1], 98 % of control; under setting [2], 98 % of control.

For `Cc1cccc(C)c1NC1=C(Cl)C(=O)c2ccccc2C1=O`, the T/C by setting is: (dose: 3.75 mg/kg/injection, schedule: Q01DX005 (ip), vehicle: saline with Tween-80) 103 % of control; (dose: 7.5 mg/kg/injection, schedule: Q01DX005 (ip), vehicle: saline with Tween-80) 97 % of control; (dose: 15.0 mg/kg/injection, schedule: Q01DX005 (ip), vehicle: saline with Tween-80) 100 % of control.

As to `CCOC(=O)c1n[nH]c(=S)[nH]c1=O`, the T/C reads like this: under setting [9], 104 % of control; under setting [10], 108 % of control; under setting [11], 101 % of control.

As to `O=C1C=CC2(CCC23C=CC(=O)O3)O1` (centres undefined), the T/C is, setting by setting: (dose: 10.0 mg/kg/injection, schedule: Q01DX009 (ip), vehicle: Klucel (hydroxypropylcellulose) (HPC)) 98 % of control; (dose: 20.0 mg/kg/injection, schedule: Q01DX009 (ip), vehicle: Klucel (hydroxypropylcellulose) (HPC)) 106 % of control; (dose: 40.0 mg/kg/injection, schedule: Q01DX009 (ip), vehicle: Klucel (hydroxypropylcellulose) (HPC)) 106 % of control.

For the compound `OC(c1cc(-c2ccccc2)nc2c(Cl)cc(Cl)cc12)C1CCCCN1` (centres undefined), the T/C runs as follows: under setting [4], 107 % of control; under setting [5], 98 % of control; under setting [6], 88 % of control and 95 % of control.

Take `CCC(C)(C)NCCCCCNc1cc(OC)cc2cccnc12`: the T/C under setting [9] is 94 % of control; the T/C under setting [3] is 95 % of control; the T/C under setting [10] is 101 % of control; the T/C under setting [1] was 95 % of control; the T/C under setting [2] is 91 % of control.

As to `S=c1[nH]nc(NC2CCCCC2)s1`, the T/C by setting is: under setting [6], 90 % of control; under setting [7], 90 % of control; (dose: 100.0 mg/kg/injection, schedule: Q04DX003 (ip), vehicle: saline with Tween-80) 91 % of control; under setting [8], 90 % of control; (dose: 200.0 mg/kg/injection, schedule: Q04DX003 (ip), vehicle: saline with Tween-80) 91 % of control.

Regarding `O=C1c2cccc(NCCCNCCO)c2C(=O)c2cccc(NCCCNCCO)c21`, the T/C is 110 % of control (dose: 12.5 mg/kg/injection, schedule: Q04DX002 (ip), vehicle: distilled water + Tween-80); 104 % of control (dose: 25.0 mg/kg/injection, schedule: Q04DX002 (ip), vehicle: distilled water + Tween-80); 111 % of control (dose: 50.0 mg/kg/injection, schedule: Q04DX002 (ip), vehicle: distilled water + Tween-80).

Consider `C=C(CC1(O)C(C2COC(C)(C)O2)OC2OC(C)(C)OC21)C(=O)OCC` (centres undefined), for which the T/C is, setting by setting: (dose: 50.0 mg/kg/injection, schedule: Q01DX005 (ip), vehicle: saline) 96 % of control; (dose: 100.0 mg/kg/injection, schedule: Q01DX005 (ip), vehicle: saline) 98 % of control; (dose: 200.0 mg/kg/injection, schedule: Q01DX005 (ip), vehicle: saline) 105 % of control.

Consider `C=C(C)c1nc(N)nc(-c2ccc(OC)cc2)n1`, for which the T/C by setting is: (dose: 100.0 mg/kg/injection, schedule: Q04DX002 (ip), vehicle: Klucel (hydroxypropylcellulose) (HPC)) 98 % of control; (dose: 200.0 mg/kg/injection, schedule: Q04DX002 (ip), vehicle: Klucel (hydroxypropylcellulose) (HPC)) 94 % of control; (dose: 400.0 mg/kg/injection, schedule: Q04DX002 (ip), vehicle: Klucel (hydroxypropylcellulose) (HPC)) 93 % of control.
